“And” between values parts separate entries of the source, which are not always exact repeats. Equal values may be shown once.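 48-hour exposure; five concentrations; linearly interpolated endpoints. Here, GI50 denotes the concentration required for 50% inhibition of growth. Definition used: TGI = concentration required for complete inhibition of growth.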
Tests used:
Assay in all cases: NCI tumour cell line growth inhibition, 48 h
BT-549 breast = tested on: BT-549 breast
CAKI-1 renal = tested on: CAKI-1 renal
EKVX NSCLC = tested on: EKVX NSCLC
HL-60(TB) leukemia = tested on: HL-60(TB) leukemia
HOP-92 NSCLC = tested on: HOP-92 NSCLC
IGROV1 ovarian = tested on: IGROV1 ovarian
KM12 colon = tested on: KM12 colon
M14 melanoma = tested on: M14 melanoma
MDA-MB-231 breast = tested on: MDA-MB-231 breast
NCI-H226 lung = tested on: NCI-H226 lung
SK-MEL-2 melanoma = tested on: SK-MEL-2 melanoma
SK-MEL-28 melanoma = tested on: SK-MEL-28 melanoma
SN12C renal = tested on: SN12C renal
T-47D breast = tested on: T-47D breast
TK-10 renal = tested on: TK-10 renal
RXF 393 renal = tested on: RXF 393 renal

SMILES	TGI (BT-549 breast) [µM]	TGI (CAKI-1 renal) [µM]	TGI (EKVX NSCLC) [µM]	TGI (HL-60(TB) leukemia) [µM]	TGI (HOP-92 NSCLC) [µM]	TGI (IGROV1 ovarian) [µM]	TGI (KM12 colon) [µM]	TGI (M14 melanoma) [µM]	TGI (MDA-MB-231 breast)	TGI (NCI-H226 lung) [µM]	TGI (SK-MEL-2 melanoma) [µM]	TGI (SK-MEL-28 melanoma) [µM]	TGI (SN12C renal) [µM]	TGI (T-47D breast) [µM]	TGI (TK-10 renal) [µM]	TGI (RXF 393 renal) [µM]	GI50 (IGROV1 ovarian) [µM]	GI50 (MDA-MB-231 breast) [µM]	GI50 (T-47D breast) [µM]	GI50 (TK-10 renal) [µM]
O=C(O)CO[C@@]12C#C/C=C\C#C[C@@H]3N(C(=O)Oc4ccccc4)c4ccccc4[C@]14O[C@@]34CCC2	69.9	> 100	> 100	> 100	> 100	> 100	60.3	> 100	26.6 µM	> 100	32.2	> 100	> 100	33.1	> 100					
O=C(/C=C/c1ccc(O)c(O)c1)OCC(OC(=O)/C=C/c1ccc(O)c(O)c1)C(=O)O (configuration not stated)	> 100	> 100	> 100		> 100	> 100	> 100	> 100	> 100 µM	> 100	> 100	> 100	> 100	> 100	> 100	> 100				
CC1C2CC(C(S(=O)(=O)O)C2=O)C1(C)C (configuration not stated)	> 100		> 100	> 100	> 100	> 100	> 100	> 100	> 100 µM	> 100		> 100	> 100	> 100	> 100	> 100				
CCOC(=O)c1sc(=S)n(-c2ccc(Cl)cc2)c1-n1cc(-c2ccccc2)c(C#N)c1N	48.1	> 100	94.7	> 100	31.2	40.5	> 100	> 100	60.1 µM	43.5	64	> 100	69.7	27.8	24.4	64.3				
CC(C)NC(=O)OCc1c2c(n(C)c1COC(=O)NC(C)C)-c1cc(Cl)c(Cl)cc1CC2	> 100		> 100		70.9	96	81.7	66.6	55.3 µM	> 100	72.8	> 100	> 100	> 100	84.5	94.8				
C=CCCON(C(=O)OC(C)(C)C)c1ccccc1	> 100	> 100	> 100	> 100	> 100	> 100	> 100	> 100	> 100 µM	> 100	> 100	> 100	> 100	> 100	> 100	> 100				
Cc1cc(C)c2c(=O)cc(-c3cccc4ccccc34)[nH]c2n1	> 100	> 100	> 100	0.734	> 77.1	> 84.5	15.4	> 51.4	18.6 µM	79.1		> 100	> 100	> 100	> 87.1	> 37.1				
O=C(NC1=C(Cl)C(=O)c2ccccc2C1=O)c1ccccc1	44.4		> 100	> 100	39.9	> 100	> 100	> 100	> 100 µM	69		> 100	> 100	47.4	52.5	34				
C[C@@H](C(=O)O)N1C(c2ccco2)=C(/C(C=O)=C\c2ccco2)C(=O)/C1=C\c1ccco1	> 100	> 100	> 100	> 100	> 100	> 100	> 100	> 100	> 100 µM		> 100	> 100	> 100	> 100	> 100	> 100				
CCOC(=O)Nc1cc2c(c(N)n1)N=C(c1ccc(OC)cc1)CN2	80.5		> 100	0.00595	48.2	0.0741	> 100	19.1	0.392 µM and 0.0787 µM		0.0838		54.5	> 100	90.1		0.0355	0.00386	> 100	0.837
OC(CC1CCCCN1)c1ccc2c(c1)oc1ccccc12 (configuration not stated)	> 100	> 100	> 100	> 100	> 100	> 100	> 100	45	> 100 µM	> 100	> 100	> 100	> 100	> 100	> 100	> 100				
C=CCn1c(N)c(C#N)c(C#N)c1CCC	> 100	> 100	> 100	> 100	> 100	> 100	> 100	> 100	> 100 µM	> 100	> 100		> 100	> 100	> 100	> 100				
COC(=O)[C@@H]1C=C[C@H](OC2OC(COC(C)=O)C(OC(C)=O)C(OC(C)=O)C2OC(C)=O)n2c(=O)n(-c3ccccc3)c(=O)n21 (some centres not stated)	6.26	2.7	11.2	4.39	3.59	12	19.6	5.77	8.42 µM	40.4	5.05	5.59	7.95	8.75	3.74	4.12				
C/C(=N\NS(=O)(=O)c1ccc(C)cc1)c1ccccn1	> 100	> 100	> 100	73.3	> 100	> 100	> 100	> 100	> 100 µM	> 100	> 100	> 100		> 100	> 100	> 100				
Cc1n(CC(C)C)c2c([n+]1C)C(=O)c1ccccc1C2=O	0.61	> 21.7	0.649	0.437	4.44	0.101	1.6	1.06	0.344 µM	1.27	0.524	2.98	0.0671	0.441	3.38	6.19				
COc1ccc(CC2COc3cc(OC)cc(OC)c3C2=O)cc1 (configuration not stated)	> 100	57.1	77.8	> 100	> 100	> 100	> 100	78.8	> 100 µM		> 100	> 100	> 100	56	82.3	> 100				
Cc1ccc(C(=O)N/N=C(\N=Nc2cccc([N+](=O)[O-])c2)c2ccc(N(CCC#N)CCC#N)cc2C)cc1	> 78.5	> 100	> 69.4	> 43	> 100	> 100	61.6	> 67.6	> 79.2 µM	> 26.2	> 77.3	> 86.3	> 100	50.7	> 100	60.7				
COc1ccc(Cn2c(=O)c(OC)c(C)c3cc4ccccc4cc32)cc1	> 100	> 100	60.3	46		57	> 100	> 100	> 100 µM	> 100	52.5	> 100	42.6	> 100	70.8	> 100				
O=C1/C(=C/C=C/c2ccccc2)CCC1CNc1ccccc1 (configuration not stated)	> 69	> 100	> 100	16.7	> 95.1	> 71.8	39.3	> 100	51.7 µM	> 100		> 100	63.9	> 68.4	> 74.7	38.1				
O=C1C2=Cc3ccccc3OC2(O)Oc2cc3ccccc3cc21 (configuration not stated)	> 100	> 100	> 100		> 100	> 100	> 100	> 100	> 100 µM	> 100	> 100	> 100	> 100	> 100	> 100	> 100				
Cc1ccc(C2(O)CSC(=NC34CC5CC(CC(C5)C3)C4)N2C(P(=O)(O)O)P(=O)(O)O)cc1 (configuration not stated)	> 100	> 100	> 100	> 100	> 100	> 100	> 100	> 100	> 100 µM	> 100	> 100	> 100	> 100	> 100	> 100					
O=[N+]([O-])c1ccc(CSc2nncc3[nH]cnc23)cc1	> 100	> 100	> 100	> 100	67.1	> 100	> 100	> 100	> 100 µM	> 100	> 100	> 100	> 100	> 100	> 100					
O=S(=O)(O)c1ccc(N=Nc2ccc3c(S(=O)(=O)O)cccc3c2O)c2ccccc12	> 100	> 100	> 100		> 100	> 100	> 100	> 100	> 100 µM	> 100	> 100	> 100	> 100	> 100	> 100	> 100				
O=c1[nH]c2cc(C(F)(F)F)ccc2nc1C(F)(F)F	> 100	89.9	> 100		45.2	> 100	71.2	> 100	> 100 µM	> 100	79.3	> 100	> 100	> 100	> 100	58.2				
COC(=O)[C@@H]1C[C@H]2OC(=O)CC[C@]2(C)O[C@H]1[C@H]1O[C@@](C)(O)CCC[C@H]1C	> 50	> 50	> 50	30.6		> 50	> 50	> 50	> 50 µM	> 50	> 50	> 50	> 50	> 50	> 50	> 50				
O=C(CSc1nnc(-c2ccccn2)s1)N/N=C/c1ccccc1	> 100	> 100			> 100	> 100	> 100	> 100	> 100 µM	> 100	> 100	> 100	> 100	> 100	> 100					
Cc1cccc(Cl)c1NCC(O)CN1CCN(C)CC1 (configuration not stated)	> 100	> 100	> 100		> 100	> 100	> 100	> 100	> 100 µM	> 100	> 100	> 100	> 100	> 100	> 100	> 100				
Cc1c(-c2ccccc2)cc(O)c2nc3ccccc3n12	> 100	> 100	> 100	> 100	> 100	> 100	> 100	> 100	> 100 µM	> 100		> 100	> 100	> 100	> 100	> 100				
CC(C)CCNC(=O)c1ccc(CNC(=O)/C=C/c2cccc(Oc3ccccc3)c2)cc1	> 100	> 100	> 100		> 100	> 100	> 100	> 100	77.5 µM	> 100	72.5	> 100	> 100	> 100	96.9	52				
C=C(C)C1CCC(C(=O)O)CC1 (configuration not stated)	> 100	> 100	> 100		> 100	> 100	> 100	> 100	> 100 µM	> 100	> 100	> 100	> 100	> 100	> 100	> 100				
